Several values for one entry are separate records, joined by “and”; a condition that tells them apart may be missing. Identical values can stand only once.
What was measured:
[1] = biological target: T1, ARISC (FL) (Homo sapiens, UniProt P46736+Q6UWZ7+Q9NXR7); test: In-gel deubiquitylation assay, TAMRA-labeled K63-tetraubiquitin, ARISC; type: biochemical; conditions: 10 μM or 100 μM inhibitor
T1 construct: full-length BRISC (FL), ARISC (FL); made in house; host or cells: Spodoptera frugiperda Sf9 insect cells (MultiBac)
Method: (§1) The inhibitor capzimin (Merck) was diluted in 1 mM DTT and incubated for 30 min at room temperature to reduce disulfide bonds required for inhibitor activity. […] DUBs were incubated with 750 nM TAMRA-labeled K63-tetraubiquitin (LifeSensors, SI6304T) for 10 min at 30 °C. Reactions were quenched by adding 2.5 μl of 4× SDS–PAGE loading dye (240 mM Tris-HCl pH 6.8, 40% v/v glycerol, 8% w/v SDS, 0.04% w/v bromophenol blue and 5% v/v β-mercaptoethanol). The samples were resolved on 4–12% NuPAGE Bis–Tris gels (Thermo Fisher Scientific). Gels were scanned using an iBright FL 1500 (Thermo Fisher Scientific) (excitation, 515–545 nm; emission, 568–617 nm; exposure, 500 ms).

[2] = biological target: T2, BRISC (FL) (Homo sapiens, UniProt P46736+Q15018+Q9NXR7); test: Native MS of BRISC with inhibitor; conditions: 10 μM BRISC, 1 mM inhibitor
T2 construct: full-length BRISC (FL), ARISC (FL); made in house; host or cells: Spodoptera frugiperda Sf9 insect cells (MultiBac)
Method: Samples were buffer-exchanged into 500 mM ammonium acetate using Zeba Spin (7-kDa molecular weight cutoff) desalting columns (Thermo Fisher Scientific). Samples were analyzed by nanoelectrospray ionization MS using a quadrupole orbitrap MS (Q-Exactive UHMR, Thermo Fisher Scientific) using gold–palladium-coated nanospray tips prepared in-house. The MS instrument was operated in positive ion mode using a capillary voltage of 1.5 kV, capillary temperature of 250 °C and S-lens radiofrequency of 200 V. In-source trapping was used with a desolvation voltage of −200 V for 4 μs. Extended trapping was not used. The quadrupole mass range was 2,000–15,000 m/z. Nitrogen gas was used in the higher-energy collisional dissociation cell with a trap gas pressure setting of 5. Orbitrap resolution was 6,250 and detector m/z optimization was low. Five microscans were averaged and an automatic gain control target of 2 × 10^5 was used. Mass calibration was performed by a separate injection of sodium iodide at a concentration of 2 μg μl^−1. Data processing was performed using QualBrowser (version 4.2.28.14) and deconvoluted using UniDec[82].

[3] = biological target: T3, BRISC (Homo sapiens, UniProt P46736+Q15018+Q9NXR7); test: Michaelis–Menten analysis of BRISC inhibition; type: biochemical
T3 construct: made in house; host or cells: Spodoptera frugiperda (Sf9) insect cells, MultiBac
Method: IQF assays were performed in DUB reaction buffer containing 50 mM HEPES–NaOH pH 7.0, 100 mM NaCl, 0.1 mg ml^−1 BSA, 1 mM DTT and 0.03% v/v Brij-35. […] The final concentration of BRISC WT, all BRISC mutants, HsBRISCΔLoop, MmBRISC and DrBRISCΔNΔC was 1 nM. Other enzymes were tested at the following concentrations: 5 nM ARISC (FL), 10 nM CfBRISCΔNΔC, 250 nM AMSH* (ref. [43]), 500 nM USP2 and 1 μM trypsin (Sigma, 9002-07-7). For Michaelis–Menten experiments, 1 nM BRISC with 0–1 μM IQF K63-linked diubiquitin substrate was used. Michaelis–Menten analyses and Lineweaver–Burk plots were calculated using GraphPad Prism (version 9.0).

[4] = biological target: T2, BRISC (FL); test: In-gel deubiquitylation assay, TAMRA-labeled K63-tetraubiquitin, BRISC; type: biochemical; conditions: 10 μM or 100 μM inhibitor
Method: as §1

[5] = biological target: T4, BRISC (FL) / BRISCΔNΔC (Homo sapiens, UniProt P46736+Q15018+Q9NXR7); test: Mass photometry of BRISC dimer formation; conditions: for Dimer fraction: 50 nM BRISCΔNΔC
T4 construct: BRISCΔNΔC (MERIT40ΔN, Abraxas 2ΔC); made in house; host or cells: Spodoptera frugiperda Sf9 insect cells (MultiBac)
Method: Immediately before mass photometry measurement, the BRISC–inhibitor mix was diluted in 25 mM HEPES pH 7.5, 150 mM NaCl and 1 mM TCEP to 10 nM BRISC ([…]). Then, 12 μl of the diluted sample was used for the final mass photometry measurement, following autofocus stabilization. […] Next, 0.5 μl of inhibitor was mixed with 19.5 μl of 50 nM BRISCΔNΔC (2.5% v/v DMSO) and incubated at room temperature for 15 min. The BRISC–inhibitor mix was used directly for mass photometry measurement using buffer-free autofocus stabilization.
Microscope coverslips were prepared according to an established protocol. Experiments were performed using a OneMP mass photometer (Refeyn). Videos were recorded for 60 s using AcquireMP (Refeyn) and processed using DiscoverMP (Refeyn). Mass photometry image processing was previously described. Briefly, contrast-to-mass (C2M) calibration was performed using protein standards (66–669 kDa) diluted in buffer (25 mM HEPES pH 7.5, 150 mM NaCl and 1 mM TCEP). […] The mass distribution from each run was in the form of a histogram, where the count refers to each landing event and a Gaussian sum is fitted to the data. The relative amount of each species was calculated as the area of each Gaussian, where σ refers to the s.d. of the fitted Gaussian. The dimer fraction refers to the percentage of the total counts corresponding to the 564-kDa BRISCΔNΔC dimer complex. Curves and half-maximal effective concentration values were fitted and calculated using the GraphPad Prism (version 9.0) built-in dose–response equation for concentration of agonist versus response (variable slope).

O=C(NC1C2CNCC21)c1nn(C(=O)c2c(Cl)cccc2Cl)cc1NC(=O)c1c(Cl)cccc1Cl (centres unmarked) [FX-171-C]
inhibition of ARISC activity against tetraubiquitin [1]: did not inhibit
BRISC dimers detected by native MS [2]: BRISC dimers with 4:4:4:4 stoichiometry were detected
Initial velocity (FU/min) ([3]; di-Ub-TAMRA 31.2 nM, inhibitor 48 nM): 121.5 FU/min and 126.3 FU/min and 146.6 FU/min
Initial velocity (FU/min) ([3]; di-Ub-TAMRA 31.2 nM, inhibitor 195 nM): 104.4 FU/min and 118.9 FU/min and 118.7 FU/min
Initial velocity (FU/min) ([3]; di-Ub-TAMRA 31.2 nM, inhibitor 781 nM): 76.24 FU/min and 88.16 FU/min and 98.75 FU/min
Initial velocity (FU/min) ([3]; di-Ub-TAMRA 31.2 nM, inhibitor 3.12 μM): 58.53 FU/min and 46.27 FU/min and 64.26 FU/min
Initial velocity (FU/min) ([3]; di-Ub-TAMRA 31.2 nM, inhibitor 12.5 μM): 38.22 FU/min and 44.65 FU/min and 65.69 FU/min
Initial velocity (FU/min) ([3]; di-Ub-TAMRA 62.5 nM, inhibitor 48 nM): 182.7 FU/min and 137.5 FU/min and 123.2 FU/min
Initial velocity (FU/min) ([3]; di-Ub-TAMRA 62.5 nM, inhibitor 195 nM): 166.2 FU/min and 105.9 FU/min and 106.4 FU/min
Initial velocity (FU/min) ([3]; di-Ub-TAMRA 62.5 nM, inhibitor 781 nM): 126.7 FU/min and 95.78 FU/min and 99.98 FU/min
Initial velocity (FU/min) ([3]; di-Ub-TAMRA 62.5 nM, inhibitor 3.12 μM): 70.11 FU/min and 76.58 FU/min and 69.67 FU/min
Initial velocity (FU/min) ([3]; di-Ub-TAMRA 62.5 nM, inhibitor 12.5 μM): 34.93 FU/min and 52.19 FU/min and 58.9 FU/min
Initial velocity (FU/min) ([3]; di-Ub-TAMRA 62.5 nM, inhibitor 50 μM): 28.22 FU/min and 40.49 FU/min and 46.74 FU/min
Initial velocity (FU/min) ([3]; di-Ub-TAMRA 125 nM, inhibitor 48 nM): 467.2 FU/min and 386.6 FU/min and 434.5 FU/min
Initial velocity (FU/min) ([3]; di-Ub-TAMRA 125 nM, inhibitor 195 nM): 414.6 FU/min and 331.3 FU/min and 418.4 FU/min
Initial velocity (FU/min) ([3]; di-Ub-TAMRA 125 nM, inhibitor 781 nM): 304.6 FU/min and 276.4 FU/min and 303.4 FU/min
Initial velocity (FU/min) ([3]; di-Ub-TAMRA 125 nM, inhibitor 3.12 μM): 173.8 FU/min and 175.1 FU/min and 170.4 FU/min
Initial velocity (FU/min) ([3]; di-Ub-TAMRA 125 nM, inhibitor 12.5 μM): 92.02 FU/min and 100.3 FU/min and 111.4 FU/min
Initial velocity (FU/min) ([3]; di-Ub-TAMRA 125 nM, inhibitor 50 μM): 36.3 FU/min and 46.67 FU/min and 63.46 FU/min
Initial velocity (FU/min) ([3]; di-Ub-TAMRA 250 nM, inhibitor 48 nM): 794.1 FU/min and 722.2 FU/min and 770.5 FU/min
Initial velocity (FU/min) ([3]; di-Ub-TAMRA 250 nM, inhibitor 195 nM): 732.8 FU/min and 688 FU/min and 641.2 FU/min
Initial velocity (FU/min) ([3]; di-Ub-TAMRA 250 nM, inhibitor 781 nM): 548.6 FU/min and 487.2 FU/min and 518.3 FU/min
Initial velocity (FU/min) ([3]; di-Ub-TAMRA 250 nM, inhibitor 3.12 μM): 309.4 FU/min and 322.6 FU/min and 305.6 FU/min
Initial velocity (FU/min) ([3]; di-Ub-TAMRA 250 nM, inhibitor 12.5 μM): 178.9 FU/min and 174 FU/min and 179.5 FU/min
Initial velocity (FU/min) ([3]; di-Ub-TAMRA 250 nM, inhibitor 50 μM): 67.25 FU/min and 84.89 FU/min and 62.1 FU/min
Initial velocity (FU/min) ([3]; di-Ub-TAMRA 500 nM, inhibitor 48 nM): 1729 FU/min and 1553 FU/min and 1273 FU/min
Initial velocity (FU/min) ([3]; di-Ub-TAMRA 500 nM, inhibitor 195 nM): 1442 FU/min and 1370 FU/min and 1434 FU/min
Initial velocity (FU/min) ([3]; di-Ub-TAMRA 500 nM, inhibitor 781 nM): 1085 FU/min and 985.1 FU/min and 1129 FU/min
Initial velocity (FU/min) ([3]; di-Ub-TAMRA 500 nM, inhibitor 3.12 μM): 624.9 FU/min and 642.2 FU/min and 551.1 FU/min
Initial velocity (FU/min) ([3]; di-Ub-TAMRA 500 nM, inhibitor 12.5 μM): 332.6 FU/min and 297.9 FU/min and 255.2 FU/min
Initial velocity (FU/min) ([3]; di-Ub-TAMRA 500 nM, inhibitor 50 μM): 109.3 FU/min and 143.3 FU/min and 196.9 FU/min
Initial velocity (FU/min) ([3]; di-Ub-TAMRA 1000 nM, inhibitor 48 nM): 2734 FU/min and 2460 FU/min and 2836 FU/min
Initial velocity (FU/min) ([3]; di-Ub-TAMRA 1000 nM, inhibitor 195 nM): 2231 FU/min and 2296 FU/min and 2566 FU/min
Initial velocity (FU/min) ([3]; di-Ub-TAMRA 1000 nM, inhibitor 781 nM): 1629 FU/min and 1647 FU/min and 1858 FU/min
Initial velocity (FU/min) ([3]; di-Ub-TAMRA 1000 nM, inhibitor 3.12 μM): 1134 FU/min
Initial velocity (FU/min) ([3]; di-Ub-TAMRA 1000 nM, inhibitor 50 μM): 213.3 FU/min and 360.7 FU/min and 415.9 FU/min
mode of inhibition ([3]; enzyme activity at different substrate concentrations): not competitive inhibitors
inhibition of BRISC cleavage of K63-linked tetraubiquitin [4]: inhibit
dimer formation with increasing inhibitor concentration (mass photometry) [5]: dose-dependent increase in dimer formation
Dimer fraction ([5]; [Inhibitor (μM)] 2500): 0.36 and 0.38 and 0.35
Dimer fraction ([5]; [Inhibitor (μM)] 10000): 0.31 and 0.43 and 0.4

Reference: article PMC7617869, “Molecular glues that inhibit deubiquitylase activity and inflammatory signaling” (Nature Structural & Molecular Biology, 2025)
